Experimental data published in paper PMC8913810, “New insights into the resistance mechanism for the BceAB-type transporter SaNsrFP” (Scientific Reports, 2022).
Read-outs that look alike come from different tables or passages of the source. Bridge positions count the residues as written; N and C are the ends. Square brackets hold non-standard residues; d marks the D form. Peptide text beside a SMILES is read from it. * marks the point of attachment. Ileψ(thiazoline)Cys = CC[C@H](C)[C@H](N)C1=N[C@H](C(=O)*)CS1; dOrn = NCCC[C@@H](N)C(=O)O

Assays:
L. lactis NZ9000Cm [1] = experiment: Growth curve, empty-plasmid strain; assay type: cell-based, Lactococcus lactis; conditions: 1 µM bacitracin + 1 mM ZnCl2 or 4 µM bacitracin without zinc; 0.3 nM nisin; monitored over 500 min, 30 °C
Source text: (§1) To investigate whether SaNsrFP confers resistance against bacitracin and Zn-bacitracin, binding to the lipid carrier UPP[20],[52], we analyzed the influence of the expression of the sansrfp gene. The sensitive L. lactis strain NZ9000, served as an indicator strain for these studies which was transformed with a plasmid encoding the nsrfp gene. We included two controls where the strains were transformed with (I) an empty plasmid (L. lactis NZ9000Cm) (II) a plasmid containing a variant of the nsrfp gene (L. lactis NZ9000SaNsrFH202AP)[34]. This NZ9000SaNsrFH202AP strain is used since the transporter carries a mutation in the H-loop, a highly conserved region of ABC transporters, and as a result is not able to hydrolyze ATP[47]. […] The growth of L. lactis NZ9000Cm, L. lactis NZ9000SaNsrFP, L. lactis NZ9000SaNsrFH202AP and L. lactis NZ9000NisT was monitored online over a time period of 500 min (Fig. 2a,b). After adding the different antibiotics to the culture, the growth curve was determined. […]
(§2) To detect the growth behavior of the different strains, precultures of L. lactis NZ9000Cm, L. lactis NZ9000SaNsrFP and L. lactis NZ9000SaNsrFH202AP cells were grown in GM17 medium with 5 or 10 µg/ml chloramphenicol and 0.3 nM nisin at 30 °C overnight. […] Growth was detected at OD584 every 10 min with a FLUOstar OPTIMA (BMG Lab technology).

L. lactis NZ9000NisT [2] = conditions: for Fold of resistance L. lactis NZ9000NisT: IC50 of NZ9000NisT relative to NZ9000Cm; for IC50: read-out: IC50 (nM) L. lactis NZ9000NisT, GM17, 5 µg/ml chloramphenicol, 0.3 nM nisin, 30 °C, 5 h, optical density
L. lactis NZ9000SaNsrFP [3] = experiment: Growth curve, SaNsrFP-producing strain; assay type: cell-based, Lactococcus lactis; conditions: 1 µM bacitracin + 1 mM ZnCl2 or 4 µM bacitracin without zinc; 0.3 nM nisin; compared with untreated control strain
Source text: as §1, §2

[4] = tested on: L. lactis NZ9000SaNsrFH202AP; experiment: Growth curve, ATP-hydrolysis deficient mutant strain; assay type: cell-based, Lactococcus lactis; conditions: 4 µM bacitracin without ZnCl2; 0.3 nM nisin; monitored over 500 min
Source text: as §1, §2

L. lactis NZ9000NsrFP [5] = conditions: for Fold of resistance L. lactis NZ9000NsrFP: IC50 of NZ9000NsrFP divided by IC50 of NZ9000Cm; for IC50: read-out: IC50 (nM) L. lactis NZ9000NsrFP, GM17, 5 µg/ml chloramphenicol, 0.3 nM nisin, 30 °C, 5 h, optical density, at least 3 biological replicates with 3 technical replicates each
Protocol: (§3) After adding the different antibiotics to the cultures of the strains L. lactis wild type (WT), L. lactis NZ9000Cm, L. lactis NZ9000SaNsrFP and L. lactis SaNsrFH202AP, the IC50 was determined.
(§4) The half maximal inhibitory concentration was determined according to Abts et al.[71]. Briefly, L. lactis NZ9000Cm, L. lactis NZ9000SaNsrFP and L. lactis NZ9000SaNsrFH202AP cells were grown in GM17 medium containing 5 µg/ml chloramphenicol and 0.3 nM nisin at 30 °C overnight. Fresh GM17Cm medium with a sublethal amount of nisin (0.3 nM) was inoculated with overnight cultures to an OD600 of 0.1. A 96-well plate was prepared with a serial dilution of examined antibiotics (concentration ranges ramoplanin 0.014 nM–3.75 µM; lysobactin 0.002 nM–10 µM; vancomycin 0.02 nM–80 µM; nisin 0.0001 nM–0.5 µM) and subsequently the cell culture was added and plates were incubated at 30 °C for 5 h. Afterwards, the optical density was measured, and the IC50 values for each strain and antibiotic were calculated.

[6] = tested on: L. lactis NZ9000NsrFH202AP; conditions: for Fold of resistance L. lactis NZ9000NsrFH202AP: IC50 of NZ9000NsrFH202AP divided by IC50 of NZ9000Cm; for IC50: read-out: IC50 (nM) L. lactis NZ9000NsrFH202AP, GM17, 5 µg/ml chloramphenicol, 0.3 nM nisin, 30 °C, 5 h, optical density, at least 3 biological replicates with 3 technical replicates each
Protocol: as §3, §4

L. lactis NZ9000Cm [7] = conditions: read-out: IC50 (nM) L. lactis NZ9000Cm; GM17, 5 µg/ml chloramphenicol, 0.3 nM nisin, 30 °C, 5 h, optical density; at least 3 biological replicates with 3 technical replicates each
Protocol: as §3, §4

[8] = tested on: L. lactis NZ9000SaNsrFH202AP; experiment: Cytoplasmic PGN precursor accumulation (HPLC/MS), ATP-hydrolysis deficient mutant strain; assay type: cell-based, Lactococcus lactis; conditions: bacitracin 100 µg/ml added at OD600 1.2, 30 min at 30 °C, repeated once; compared with NZ9000Cm
Protocol: (§5) Cells were grown in M17 medium supplemented with 0.5% glucose and 0.3 nM nisin overnight at 30 °C without shaking. The next day, 100 ml with 0.5% glucose and 0.3 nM nisin was inoculated with overnight cultures to OD600 = 0.1. When OD600 = 1.2 bacitracin (100 µg/ml) was added to the cultures to enrich cell wall precursors, and the cultures were incubated for an additional 30 min at 30 °C. This step was repeated once. (As a control, a second culture each was harvested before bacitracin was added at an OD600 = 1.2, and cell pellets were stored at − 20 °C) After incubation with bacitracin, the cells were harvested, and the cell pellets were stored at − 20 °C. The next day, the cell pellets were resuspended in 25 ml water and cooked for 60 min in boiling water to break the cells. Cell debris was removed by centrifugation (15 min, 500×g, 4 °C). […]
(§6) Five microliters of each sample were injected into an XCT6330 LC/MSD ultratrap system (Agilent Technologies) equipped with a Nucleosil 100 C18 column (3 μm × 100 mm × 2 mm internal diameter, Dr. Maisch GmbH). […] Extracted ion chromatograms (EICs) in negative ion mode for UDP-MurNAc-L-Ala-D-iGlu-L-Lys-D-Ala-D-Ala (m/z^−1 1148.34 ± 0.1) and UDP-MurNAc-L-Ala-D-iGlu-L-Lys-(D-Asp)-D-Ala-D-Ala (m/z^−1 1263.37 ± 0.1) were analyzed with Data Analysis (Bruker), exported and presented with GraphPad Prism 6.0.

L. lactis NZ9000Cm [9] = experiment: Cytoplasmic PGN precursor accumulation (HPLC/MS), empty-plasmid strain; assay type: cell-based, Lactococcus lactis; conditions: bacitracin 100 µg/ml added at OD600 1.2, 30 min at 30 °C, repeated once; HPLC/MS EIC 1148.4 and 1263.4
Protocol: as §5, §6

L. lactis NZ9000NisT [10] = experiment: Growth curve, NisT-producing strain; assay type: cell-based, Lactococcus lactis; conditions: 1 µM bacitracin + 1 mM ZnCl2 or 4 µM bacitracin without zinc; 0.3 nM nisin; monitored over 500 min, 30 °C
Source text: as §1, §2

L. lactis NZ9000SaNsrFP [11] = experiment: Cytoplasmic PGN precursor accumulation (HPLC/MS), SaNsrFP-producing strain; assay type: cell-based, Lactococcus lactis; conditions: bacitracin 100 µg/ml added at OD600 1.2, 30 min at 30 °C, repeated once; HPLC/MS EIC 1148.4 and 1263.4
Protocol: as §5, §6

SaNSRS236A = tested on: SaNSRS236A; parameters: method as in earlier work; conditions: low-level resistance; ref 32 (Khosa et al.); cited from earlier work
L. lactis NZ9000NsrFP [12] = conditions: fold changes described earlier for SaNsrFP; ref 34 (Reiners et al.); cited from earlier work
Source text: No significant differences were detected between NZ9000NsrFP and NZ9000NsrFH202AP with ramoplanin. […] IC50 values decreased to similar levels in L. lactis NZ9000SaNsrFH202AP (one, two ...

Compound: CC[C@H](C)[C@H](N)C1=N[C@H](C(=O)N[C@@H](CC(C)C)C(=O)N[C@H](CCC(=O)O)C(=O)N[C@H](C(=O)N[C@H]2CCCCNC(=O)[C@H](CC(N)=O)NC(=O)[C@@H](CC(=O)O)NC(=O)[C@H](Cc3cnc[nH]3)NC(=O)[C@@H](Cc3ccccc3)NC(=O)[C@H]([C@@H](C)CC)NC(=O)[C@@H](CCCN)NC2=O)[C@@H](C)CC)CS1 [Bacitracin, bacitracin] ({Ileψ(thiazoline)Cys}-L[dE]IK[dOrn]I[dF]H[dD]N; lactam 4-C (inferred); N-terminus assumed)
- Growth behaviour of L. lactis NZ9000Cm (L. lactis NZ9000Cm [1]): Severe growth inhibition
- Fold of resistance L. lactis NZ9000NisT (L. lactis NZ9000NisT [2]): 1 ± 0 fold
- IC50 (L. lactis NZ9000NisT [2]): 733 nM
- Growth behaviour of L. lactis NZ9000SaNsrFP (L. lactis NZ9000SaNsrFP [3]): did not show reduced growth
- Growth behaviour of L. lactis NZ9000SaNsrFH202AP [4]: reduced growth
- Fold of resistance L. lactis NZ9000NsrFP (L. lactis NZ9000NsrFP [5]): 349 ± 65 fold
- Fold of resistance L. lactis NZ9000NsrFP (L. lactis NZ9000NsrFP [5]; listed as bacitracin): 350 fold
- IC50 (L. lactis NZ9000NsrFP [5]): 328000 nM
- Fold of resistance L. lactis NZ9000NsrFH202AP [6]: 13 fold
- IC50 [6]: 12900 nM
- IC50 (L. lactis NZ9000Cm [7]): 938 ± 94 nM
- PGN precursor accumulation in the cytoplasm, L. lactis NZ9000SaNsrFH202AP [8]: reduced PGN precursor accumulation
- PGN precursor accumulation in the cytoplasm, L. lactis NZ9000Cm (L. lactis NZ9000Cm [9]): presence of the characteristic PGN precursors
- Growth behaviour of L. lactis NZ9000NisT (L. lactis NZ9000NisT [10]): Severe growth inhibition
- PGN precursor accumulation in the cytoplasm, L. lactis NZ9000SaNsrFP (L. lactis NZ9000SaNsrFP [11]): no accumulation of the PGN precursors

Compound: CN[C@H](CC(C)C)C(=O)N[C@H]1C(=O)N[C@@H](CC(N)=O)C(=O)N[C@H]2C(=O)N[C@H]3C(=O)N[C@H](C(=O)N[C@H](C(=O)O)c4cc(O)cc(O)c4-c4cc3ccc4O)[C@H](O)c3ccc(c(Cl)c3)Oc3cc2cc(c3O[C@@H]2O[C@H](CO)[C@@H](O)[C@H](O)[C@H]2O[C@H]2C[C@](C)(N)[C@H](O)[C@H](C)O2)Oc2ccc(cc2Cl)[C@H]1O [Vancomycin, vancomycin]
- Fold of resistance L. lactis NZ9000NisT (L. lactis NZ9000NisT [2]): 1 ± 0 fold
- IC50 (L. lactis NZ9000NisT [2]): 133 ± 9 nM
- Fold of resistance L. lactis NZ9000NsrFP (L. lactis NZ9000NsrFP [5]): 5 ± 1 fold
- IC50 (L. lactis NZ9000NsrFP [5]): 1080 ± 264 nM
- Fold of resistance L. lactis NZ9000NsrFH202AP [6]: 2 ± 1 fold
- IC50 [6]: 325 ± 117 nM
- IC50 (L. lactis NZ9000Cm [7]): 214 nM

Compound: ramoplanin A2
- Fold of resistance L. lactis NZ9000NisT (L. lactis NZ9000NisT [2]): 1.3 ± 0 fold
- IC50 (L. lactis NZ9000NisT [2]): 95 nM
- Fold of resistance L. lactis NZ9000NsrFP (L. lactis NZ9000NsrFP [5]): 2 ± 1 fold
- IC50 (L. lactis NZ9000NsrFP [5]): 121 ± 34 nM
- Fold of resistance L. lactis NZ9000NsrFH202AP [6]: 1 ± 0 fold
- IC50 [6]: 92 ± 21 nM
- IC50 (L. lactis NZ9000Cm [7]): 73 ± 18 nM

Compound: lysobactin
- Fold of resistance L. lactis NZ9000NisT (L. lactis NZ9000NisT [2]): 1 ± 0 fold
- IC50 (L. lactis NZ9000NisT [2]): 25 ± 3 nM
- Fold of resistance L. lactis NZ9000NsrFP (L. lactis NZ9000NsrFP [5]): 6 ± 1 fold
- IC50 (L. lactis NZ9000NsrFP [5]): 182 ± 37 nM
- Fold of resistance L. lactis NZ9000NsrFH202AP [6]: 3 ± 2 fold
- IC50 [6]: 102 ± 52.2 nM
- IC50 (L. lactis NZ9000Cm [7]): 30.7 nM

Compound: nisin
- Resistance against nisin, inactive protease variant SaNSRS236A (SaNSRS236A): 2.6 fold
- Fold of resistance conferred by SaNsrFP (L. lactis NZ9000NsrFP [12]): 16 fold

Compound: gallidermin
- Fold of resistance conferred by SaNsrFP (L. lactis NZ9000NsrFP [12]): 12 fold
